Assays:
[1] = Stability (moisture content) at 23° C. and 92.5% humidity; type: physicochemical; details: temperature 23° C., humidity 92.5%
Procedure: The stability of various 3-hydroxy-3-methylbutyrate salts and the complexes of the present disclosure was each measured at 23° C. and 92.5% humidity, and the results are shown in Table 7.

[2] = Solubility of 3-hydroxy-3-methylbutyrate salts and complexes; type: physicochemical
Excerpt: The solubility of various 3-hydroxy-3-methylbutyrate salts and the complexes of Examples was each determined.

Molecule	moisture content ([1]; 30 min) [%]	moisture content ([1]; 1 h) [%]	moisture content ([1]; 2 h) [%]	moisture content ([1]; 4 h) [%]	moisture content ([1]; 6 h) [%]	moisture content ([1]; 7 h) [%]	moisture content ([1]; 11 h) [%]	moisture content ([1]; 22 h) [%]	Solubility [2] [g/100]
calcium 3-hydroxy-3-methylbutyrate [reference compound]	0.19	0.38	0.63	1.16	1.36	1.51	1.83	3.20	–
CC(C)(O)CC(=O)O [HMB-K complex, 3-hydroxy-3-methylbutyric acid·potassium 3-hydroxy-3-methylbutyrate complex]	0.29	0.59	0.97	1.80	2.11	2.35	2.85	4.98	225
CC(C)(O)CC(=O)[O-].[Na+] [sodium 3-hydroxy-3-methylbutyrate, reference compound]	0.32	0.65	1.07	1.98	2.32	2.58	3.13	5.47	72.9
magnesium 3-hydroxy-3-methylbutyrate [reference compound]	0.11	0.23	0.38	0.70	0.81	0.91	1.10	1.92	6
CC(C)(O)CC(=O)[O-].[K+] [potassium 3-hydroxy-3-methylbutyrate, reference compound]	0.42	0.85	1.39	2.57	3.02	3.35	4.07	7.11	101.1
CC(C)(O)CC(=O)O [HMB-Ca complex, 3-hydroxy-3-methylbutyric acid·calcium 3-hydroxy-3-methylbutyrate complex]	0.14	0.29	0.47	0.87	1.02	1.13	1.37	2.40	32
CC(C)(O)CC(=O)O [HMB-Na complex, 3-hydroxy-3-methylbutyric acid·sodium 3-hydroxy-3-methylbutyrate complex]	0.22	0.46	0.75	1.39	1.62	1.81	2.19	3.83	135

Source: patent US20260042727A1, “COMPLEX OF 3-HYDROXY-3-METHYLBUTYRIC ACID AND SALT THEREOF, AND PREPARATION METHOD THEREFOR” (NANJING NUTRABUILDING BIO-TECH CO., LTD., priority 2023, published 2026)
